Results published in patent US9149040B2, “Synergistic pesticidal compositions and related methods” (Dow AgroSciences LLC, priority 2013, dated 2015).

Test system: diamondback moth, Plutella xylostella
Test: Diamondback moth bioassay on track-sprayed cabbage plants/leaf discs, percent control
Type: in vivo
Experimental: Three second-instar diamondback moth, Plutella xylostella, were infested onto each leaf disc. […] The “Colby's Expected Action” was calculated using Colby's equation as discussed previously.

SMILES | % Control Three Days After Treatment (flonicamid alone, dose rate 0.000039 weight %) | % Control Three Days After Treatment (flonicamid alone, dose rate 0.000156 weight %) | % Control Three Days After Treatment (compound I alone, dose rate 0.000625 weight %) | % Control Three Days After Treatment (compound I alone, dose rate 0.000625 weight %, listed as compound I) | % Control Three Days After Treatment (compound I alone, dose rate 0.0025 weight %, second-instar larvae, 400 L/Ha spray)
N#CCNC(=O)c1cnccc1C(F)(F)F [Flonicamid, N-(cyanomethyl)-4-(trifluoromethyl)-3-pyridinecarboxamide, reference compound] | 4.17% | 4.17% | – | – | –
CCN(C(=O)CCSCCC(F)(F)F)c1cn(-c2cccnc2)nc1Cl [Compound I, N-(3-chloro-1-(pyridin-3-yl)-1H-pyrazol-4-yl)-N-ethyl-3-((3,3,3-trifluoropropyl)thio)propanamide] | – | – | 0% | no control | no control
